Patent US5928868A, “Three hybrid screening assay” (Massachusetts Institute of Technology, priority 1997, dated 1999)

Experiments:
[1] = target: T1, Gal 4 activation domain-human FKBP12 and Gal4 DNA binding domain-hormone binding domain of rat glucocorticoid receptor (UniProt P06536+P62942, C656G/F620S); conditions: 10 μM FK506 with 1 μM dexamethasone-FK506, 30 mM 3-aminotriazole, three days
Description: A three-hybrid assay using a second Gal4 DNA binding domain and activation domain as described by Fields et al. (U.S. Pat. No. 5,468,614) and by Durfee et al. (1993) Genes and Development vol 7, pg 555-569 was evaluated. The hormone binding domain of rat glucocorticoid receptor (residues 497-795) containing either a single or double mutations (C656G and F620S) was PCR amplified using primers tagged with restriction sites and subcloned into the vector pASII to encode a fusion protein between the Gal4 DNA binding domain and the hormone binding domain of rat glucocorticoid receptor to give a plasmid pASHBD. The coding sequence of human FKBP12 was PCR amplified and subcloned into the vector pACTII to include a fusion protein between Gal 4 activation domain and human FKBP12. The resultant vector is called pACTFKBP. The vectors pASHBD and pACTFKBP were transformed into the yeast strain Y190 using lithium acetate method and the transformed yeast were selected on SC (Leu^-, Trp^-).

[2] = system: FK506 binding proteins (FKBP); conditions: cited from earlier work
[3] = target: transcriptional activator-FKBP12 and Lex A DNA Binding Domain-Hormone Binding Domain of the Rat Glucocorticoid Receptor (UniProt P06536+P62942, C656G/F620S); assay: Yeast three hybrid screen, Lex A system (EGY48; lacZ and leu 2 reporters); type: cell-based, Saccharomyces cerevisiae (EGY 48); conditions: 2% galactose
Text: A first vector containing the cDNA fragment encoding FKBP 12-transcriptional module was formed as follows. The cDNA encoding FKBP 12 was originally obtained from a human cDNA library prepared according to well known techniques (Current Protocols in Molecular Biology). The cDNA encoding the FKBP12 was amplified by PCR and subcloned into the EcoRI and XhoI sites of the pJG4-5 vector where the pJG4-5 vector already contains the transcriptional activator module. (Current Protocols in Molecular Biology). The resulting vector is called pJGFKBP.
A second vector encoding the hormone binding domain of rat glucocorticoid receptor (FIG. 4) and the Lex A binding protein was made as follows: A clone containing the full length rat glucocorticoid receptor with the C656G mutation was obtained according to Chakrabati et al. Journal of Biological Chemistry, (1991) vol 266, pp22075-22078. A fragment encoding amino acid residues 497-795 of the protein with the F620S mutation was generated by a standard two-step PCR reaction routinely used for the creation of point mutations. This fragment was flanked by restriction sites for MfeI and XhoI, and was subcloned into the EcoRI and XhoI sites of the pEG202 vector (Current Protocols in Molecular Biology) where the pEG202 vector contains the sequence which encodes for a protein which binds the bacterial Lex A operator. The resulting hybrid construct, designated pEGHDP encodes the second hybrid protein in the assay.
A third vector identified as pSH18-34 and containing the lacZ reporter gene downstream of a number of Lex A operators was made following standard techniques. (Current Protocols in Molecular Biology).
Saccharomyces cerevisiae (EGY 48) [Current Protocols on Molecular Biology], was transformed with the three vectors described above using standard lithium acetate transformation procedures. Positive transformants were selected by plating cells on complete minimal media yeast dropout plates containing 2% glucose, and lacking histidine, tryptophan and uracil. The transformed EGY48 yeast were then screened as described below.
(FIG. 6). […] This experiment was also performed on similar plates which were also leu^-. The leu 2 gene is used in EGY48 as a second reporter gene. Only yeast that grow in the absence of leucine contain a trimeric complex. These yeast grew well, with isolated colonies clearly visible at two days. Two control experiments were conducted by plating the transformed EGY48 strain onto complete minimal media Ura^-, His^-, Trp^- yeast dropout plates as in the aforementioned cases except the plates contained 2% glucose instead of 2% galactose. In the absence of galactose, the hybrid transcriptional activator-FKBP12 protein was not expressed since the gene encoding it is under the Gal1 promoter. […]

[4] = target: T1, Gal 4 activation domain-human FKBP12 and Gal4 DNA binding domain-hormone binding domain of rat glucocorticoid receptor; type: cell-based, yeast strain Y190; conditions: FK506 1 to 10 μM with 1 μM dexamethasone-FK506, 30° C., 12-16 hours
Description: The above yeast system has both a His- biosynthetic gene and a LacZ reporter gene as reporters for detection of three-hybrid interactions. We performed liquid β-galactosidase assay as follows. […] The culture were shaken vigorously at 30° C. for 12-16 hours. The yeast were harvested and the amount of β-galactosidase activity were quantified using established procedure (Current Protocol in Molecular Biology, Chapt. 13). […] This system is applied for screening a cDNA library to identify FKBPs that binds to FK506. The screening procedures are identical to those employed in Example 1.

glucocorticoid receptor = conditions: cited from earlier work
[5] = system: Jurkat cDNA library subcloned into pJG4-5; conditions: 1 μM dexamethasone-FK506; growth inhibited by 10 μM FK506
Description: The yeast strain: EGY48 ura3 trp1 his3 Lex A operator-LEU 2; was transformed with pEGHDP and PSH18-34 and plated onto synthetic complete (SC) medium (His^-, Ura^-). The resultant EGY48 harboring pEGHBD and pSH18-34 was transformed with a Jurkat cDNA library subcloned into pJG4-5. […] Colonies were collected between days four and ten. All colonies were plated onto SC medium (His^-, Ura^-, Trp^-, Leu^-) containing galactose.

Sequence of transcriptional activator-FKBP12 and Lex A DNA Binding Domain-Hormone Binding Domain of the Rat Glucocorticoid Receptor (P62942 2-108): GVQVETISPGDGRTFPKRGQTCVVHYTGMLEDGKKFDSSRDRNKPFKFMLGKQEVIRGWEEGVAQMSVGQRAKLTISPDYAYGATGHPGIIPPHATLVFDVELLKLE
Sequence of transcriptional activator-FKBP12 and Lex A DNA Binding Domain-Hormone Binding Domain of the Rat Glucocorticoid Receptor (P06536 497-795 F620S/C656G): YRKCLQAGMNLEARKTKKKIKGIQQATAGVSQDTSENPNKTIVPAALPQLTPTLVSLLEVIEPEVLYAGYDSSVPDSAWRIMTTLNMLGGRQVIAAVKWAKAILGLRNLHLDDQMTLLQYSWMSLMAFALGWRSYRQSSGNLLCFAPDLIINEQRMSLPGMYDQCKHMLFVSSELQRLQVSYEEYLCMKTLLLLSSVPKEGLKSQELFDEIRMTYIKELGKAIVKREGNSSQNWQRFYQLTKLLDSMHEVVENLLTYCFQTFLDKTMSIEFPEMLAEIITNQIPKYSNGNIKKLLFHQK
T1 sequence (P62942 2-108): as the sequence (P62942 2-108) above
T1 sequence (P06536 497-795 F620S/C656G): as the sequence (P06536 497-795 F620S/C656G) above

For `C=CC[C@@H]1/C=C(\C)C[C@H](C)C[C@H](OC)[C@H]2O[C@@](O)(C(=O)C(=O)N3CCCC[C@H]3C(=O)O[C@H](/C(C)=C/[C@@H]3CC[C@@H](O)[C@H](OC)C3)[C@H](C)[C@@H](O)CC1=O)[C@H](C)C[C@@H]2OC` [FK506], the “yeast colonies on selective plates in competition with hybrid ligand” value [1] is given as “absent”, the “binding affinity to FKBPs when linked through the effector domain” value ([2]; FK506 linked through the effector domain) is given as “low nanomolar binding affinity” and the “binding affinities for FKBPs” value ([2]; free FK506) is given as “in the nanomolar range”. For the same compound, the “competitive inhibition of trimeric complex formation / Lac Z activation (yeast color)” value ([3]; 10 μM FK506 with 1 μM dexamethasone-FK506 hybrid ligand) was “all of the yeast remained white” and the “β-galactosidase activity in competition with hybrid ligand” value [4] was “decrease in a FK506 dose-dependent manner”.
For `C[C@@H]1C[C@H]2[C@@H]3CCC4=CC(=O)C=C[C@]4(C)[C@@]3(F)[C@@H](O)C[C@]2(C)[C@@]1(O)C(=O)CO` [dexamethasone], the “affinity for the glucocorticoid receptor” value (glucocorticoid receptor) is given as “high affinity”.
For dexamethasone-FK506, the “reporter gene activation (Lac Z, blue color on X-Gal)” value ([3]; 1 μM hybrid ligand, Ura-, His-, Trp- plates with X-Gal) was “the yeast were blue at three days”, the “time at which light blue color signifying reporter gene activation began to arise” value ([3]; 1 μM hybrid ligand, X-Gal plates) was “approximately 36 hours” and the “growth in the absence of leucine (leu 2 reporter gene)” value ([3]; 1 μM hybrid ligand, leu- plates) was “grew well”. For the same compound, the “protein encoded by cDNA clones isolated with the hybrid ligand” value [5] was “found to encode human FKBP12”.
